Assay results taken from ChEMBL document CHEMBL3400003, “Isoindoline-1,3-dione derivatives targeting cholinesterases: design, synthesis and biological evaluation of potential anti-Alzheimer's agents” (Bioorg Med Chem, 2015).

Legend:
[1] = target: Amyloid-beta precursor protein (Homo sapiens) (UniProt P05067); assay: Inhibition of recombinant human HFIP-pretreated Amyloid beta (1 to 42) (unknown origin) self-induced aggregation at 10 uM after 24 hrs by thioflavin T-based fluorometric assay
Acetylcholinesterase [2] = target: Acetylcholinesterase (Electrophorus electricus, UniProt O42275)
Cholinesterase = Cholinesterase (Equus caballus, UniProt P81908)
Acetylcholinesterase [3] = target: Acetylcholinesterase (Homo sapiens, UniProt P22303)
[4] = target: Cholinesterase (Equus caballus) (UniProt P81908); assay: Inhibition of BuChE in horse serum at 10 uM pre-incubated for 5 mins before addition of butyrylthiocholine iodide substrate by Ellman's assay
[5] = PAMPA

Sequence of Acetylcholinesterase (Homo sapiens, UniProt P22303) (P22303 whole entry): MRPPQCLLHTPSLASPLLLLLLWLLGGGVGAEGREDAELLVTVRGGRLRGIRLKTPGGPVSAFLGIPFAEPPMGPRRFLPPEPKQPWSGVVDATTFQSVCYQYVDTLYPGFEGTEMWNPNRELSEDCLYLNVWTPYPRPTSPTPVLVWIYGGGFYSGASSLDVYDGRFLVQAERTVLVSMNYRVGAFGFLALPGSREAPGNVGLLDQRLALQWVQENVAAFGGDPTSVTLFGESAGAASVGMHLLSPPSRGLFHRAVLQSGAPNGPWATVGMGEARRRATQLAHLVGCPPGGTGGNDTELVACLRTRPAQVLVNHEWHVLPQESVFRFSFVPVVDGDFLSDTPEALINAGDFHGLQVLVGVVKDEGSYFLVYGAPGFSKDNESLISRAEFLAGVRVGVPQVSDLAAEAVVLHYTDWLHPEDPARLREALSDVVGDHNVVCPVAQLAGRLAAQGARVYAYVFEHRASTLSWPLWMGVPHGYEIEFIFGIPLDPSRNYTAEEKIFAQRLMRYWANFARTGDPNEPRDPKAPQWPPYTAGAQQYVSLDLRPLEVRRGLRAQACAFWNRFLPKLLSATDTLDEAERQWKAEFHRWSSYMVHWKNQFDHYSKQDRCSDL
Sequence of Amyloid-beta precursor protein (Homo sapiens) (P05067 whole entry): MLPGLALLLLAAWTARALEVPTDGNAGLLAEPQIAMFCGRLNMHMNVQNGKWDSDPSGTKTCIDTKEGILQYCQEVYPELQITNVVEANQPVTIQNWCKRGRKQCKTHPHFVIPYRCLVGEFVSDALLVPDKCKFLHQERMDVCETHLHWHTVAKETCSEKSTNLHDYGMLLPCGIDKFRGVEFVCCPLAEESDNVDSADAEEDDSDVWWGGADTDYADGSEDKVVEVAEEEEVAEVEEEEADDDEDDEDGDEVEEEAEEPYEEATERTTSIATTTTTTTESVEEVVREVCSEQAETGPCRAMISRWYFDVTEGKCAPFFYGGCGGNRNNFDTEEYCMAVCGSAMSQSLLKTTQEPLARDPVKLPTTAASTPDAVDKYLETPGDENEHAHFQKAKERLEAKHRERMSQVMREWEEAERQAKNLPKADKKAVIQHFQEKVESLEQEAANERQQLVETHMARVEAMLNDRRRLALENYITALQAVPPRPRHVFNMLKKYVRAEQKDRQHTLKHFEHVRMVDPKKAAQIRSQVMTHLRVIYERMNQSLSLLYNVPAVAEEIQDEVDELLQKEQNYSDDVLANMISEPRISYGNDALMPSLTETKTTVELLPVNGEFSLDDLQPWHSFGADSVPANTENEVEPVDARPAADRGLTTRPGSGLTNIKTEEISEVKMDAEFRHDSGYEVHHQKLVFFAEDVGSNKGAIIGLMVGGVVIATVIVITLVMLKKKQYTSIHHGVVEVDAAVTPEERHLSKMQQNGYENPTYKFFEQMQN
Sequence of Cholinesterase (P81908 whole entry): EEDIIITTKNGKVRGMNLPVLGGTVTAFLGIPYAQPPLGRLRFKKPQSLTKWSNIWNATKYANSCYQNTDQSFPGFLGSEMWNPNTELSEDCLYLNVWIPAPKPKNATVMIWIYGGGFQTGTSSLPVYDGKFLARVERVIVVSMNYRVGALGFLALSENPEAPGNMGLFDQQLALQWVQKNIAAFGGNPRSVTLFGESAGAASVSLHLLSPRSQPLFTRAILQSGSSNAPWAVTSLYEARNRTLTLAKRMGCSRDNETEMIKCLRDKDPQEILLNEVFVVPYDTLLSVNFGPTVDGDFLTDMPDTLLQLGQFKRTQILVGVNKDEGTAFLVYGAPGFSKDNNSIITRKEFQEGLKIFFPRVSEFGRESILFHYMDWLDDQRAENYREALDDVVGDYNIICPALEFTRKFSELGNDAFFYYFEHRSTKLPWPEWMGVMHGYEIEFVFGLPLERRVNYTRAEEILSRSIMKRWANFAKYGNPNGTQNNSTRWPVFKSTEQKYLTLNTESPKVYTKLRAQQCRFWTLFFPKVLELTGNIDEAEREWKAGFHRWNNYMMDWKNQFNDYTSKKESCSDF
Sequence of Cholinesterase (Equus caballus) (P81908 whole entry): as above
Sequence of Acetylcholinesterase (Electrophorus electricus, UniProt O42275) (O42275 whole entry): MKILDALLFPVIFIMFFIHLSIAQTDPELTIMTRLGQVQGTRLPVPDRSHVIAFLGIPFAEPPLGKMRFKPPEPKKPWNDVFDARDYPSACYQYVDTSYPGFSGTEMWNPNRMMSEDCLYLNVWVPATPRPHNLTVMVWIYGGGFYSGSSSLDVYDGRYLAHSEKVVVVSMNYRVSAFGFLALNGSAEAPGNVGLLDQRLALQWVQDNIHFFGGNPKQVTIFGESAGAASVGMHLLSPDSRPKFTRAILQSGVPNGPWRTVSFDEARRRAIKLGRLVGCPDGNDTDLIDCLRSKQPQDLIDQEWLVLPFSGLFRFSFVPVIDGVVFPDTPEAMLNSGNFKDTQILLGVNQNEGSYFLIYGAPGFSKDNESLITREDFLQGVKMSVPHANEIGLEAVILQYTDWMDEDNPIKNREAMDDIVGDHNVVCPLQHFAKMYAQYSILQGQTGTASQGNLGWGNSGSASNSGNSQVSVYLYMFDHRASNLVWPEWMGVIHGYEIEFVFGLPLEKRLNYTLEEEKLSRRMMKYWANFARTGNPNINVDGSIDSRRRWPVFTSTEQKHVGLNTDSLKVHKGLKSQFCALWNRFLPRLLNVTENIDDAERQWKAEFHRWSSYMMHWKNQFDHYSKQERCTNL

CN(CCCCCCCCN1C(=O)c2ccccc2C1=O)Cc1ccccc1F
inhibition [1]: < 5% | IC50 (Acetylcholinesterase [2]): 661 nM | IC50 (Cholinesterase): 4680 nM | IC50 (Acetylcholinesterase [3]): 644 nM

CN(CCCCCCCCN1C(=O)c2ccccc2C1=O)Cc1ccccc1
inhibition [1]: < 5% | IC50 (Acetylcholinesterase [2]): 139 nM | IC50 (Cholinesterase): 543 nM | IC50 (Acetylcholinesterase [3]): 860 nM

CN(CCCCN1C(=O)c2ccccc2C1=O)Cc1cccc(Cl)c1
inhibition [4]: < 50% | inhibition [1]: < 5% | IC50 (Acetylcholinesterase [2]): 1430 nM

CN(CCCCN1C(=O)c2ccccc2C1=O)Cc1ccccc1
inhibition [4]: < 50% | inhibition [1]: < 5% | IC50 (Acetylcholinesterase [2]): 2330 nM

CC(=O)[C@H]1CC[C@H]2[C@@H]3CCC4=CC(=O)CC[C@]4(C)[C@H]3CC[C@]12C [PROGESTERONE]
log Pe [5]: -5.1

CN(CCCCCCCN1C(=O)c2ccccc2C1=O)Cc1ccccc1F
inhibition [1]: < 5% | IC50 (Acetylcholinesterase [2]): 525 nM | IC50 (Cholinesterase): 7160 nM | IC50 (Acetylcholinesterase [3]): 625 nM

O=C1c2ccccc2C(=O)N1Cc1ccc(CNCc2ccccc2)cc1
inhibition [1]: < 5% | IC50 (Cholinesterase): 2080 nM

O=C1c2ccccc2C(=O)N1Cc1ccc(CNCc2ccccc2F)cc1
inhibition [1]: < 5% | IC50 (Acetylcholinesterase [2]): 2580 nM | IC50 (Cholinesterase): 2900 nM

CN(CCCCCN1C(=O)c2ccccc2C1=O)Cc1ccccc1
inhibition [4]: < 50% | inhibition [1]: < 5% | IC50 (Acetylcholinesterase [2]): 80 nM | IC50 (Acetylcholinesterase [3]): 361 nM

CN(CCCCCN1C(=O)c2ccccc2C1=O)Cc1cccc(Cl)c1
inhibition [1]: < 5% | IC50 (Acetylcholinesterase [2]): 110 nM | IC50 (Cholinesterase): 5830 nM | IC50 (Acetylcholinesterase [3]): 537 nM

O=C1c2ccccc2C(=O)N1Cc1ccc(CNCc2cccc(Cl)c2)cc1
inhibition [1]: < 5% | IC50 (Acetylcholinesterase [2]): 6310 nM | IC50 (Cholinesterase): 1320 nM

CN(CCCCCCN1C(=O)c2ccccc2C1=O)Cc1ccccc1F
inhibition [1]: < 5% | IC50 (Acetylcholinesterase [2]): 75 nM | IC50 (Cholinesterase): 10500 nM | IC50 (Acetylcholinesterase [3]): 1990 nM

CN(CCCCCCN1C(=O)c2ccccc2C1=O)Cc1ccccc1
inhibition [4]: < 50% | inhibition [1]: < 5% | IC50 (Acetylcholinesterase [2]): 89 nM | IC50 (Acetylcholinesterase [3]): 1830 nM

CN(CCCCCCCN1C(=O)c2ccccc2C1=O)Cc1ccccc1
inhibition [1]: < 5% | IC50 (Acetylcholinesterase [2]): 172 nM | IC50 (Cholinesterase): 1010 nM | IC50 (Acetylcholinesterase [3]): 997 nM

CN(CCCCCCN1C(=O)c2ccccc2C1=O)Cc1cccc(Cl)c1
inhibition [1]: < 5% | IC50 (Acetylcholinesterase [2]): 95 nM | IC50 (Cholinesterase): 2440 nM | IC50 (Acetylcholinesterase [3]): 1190 nM

CN(CCCCN1C(=O)c2ccccc2C1=O)Cc1ccccc1F
inhibition [4]: < 50% | inhibition [1]: < 5% | IC50 (Acetylcholinesterase [2]): 1520 nM

CN(CCCCCCCCN1C(=O)c2ccccc2C1=O)Cc1cccc(Cl)c1
inhibition [1]: < 5% | IC50 (Acetylcholinesterase [2]): 1360 nM | IC50 (Cholinesterase): 909 nM | IC50 (Acetylcholinesterase [3]): 1040 nM

CN(CCCCCN1C(=O)c2ccccc2C1=O)Cc1ccccc1F
inhibition [4]: < 50% | inhibition [1]: < 5% | IC50 (Acetylcholinesterase [2]): 67 nM | IC50 (Acetylcholinesterase [3]): 525 nM

CN(CCCCCCCN1C(=O)c2ccccc2C1=O)Cc1cccc(Cl)c1
inhibition [1]: < 5% | IC50 (Acetylcholinesterase [2]): 500 nM | IC50 (Cholinesterase): 1500 nM | IC50 (Acetylcholinesterase [3]): 1300 nM
